Like-named read-outs stand apart in the source and are kept apart here.
Columns and labels:
Format in all cases: biochemical
Human recombinant LOXL2 = molecular target: T1, Human recombinant LOXL2 (Homo sapiens, UniProt Q9Y4K0); experiment: LOXL2 inhibition, Amplex Red oxidation assay
T1 sequence (Q9Y4K0 26-774): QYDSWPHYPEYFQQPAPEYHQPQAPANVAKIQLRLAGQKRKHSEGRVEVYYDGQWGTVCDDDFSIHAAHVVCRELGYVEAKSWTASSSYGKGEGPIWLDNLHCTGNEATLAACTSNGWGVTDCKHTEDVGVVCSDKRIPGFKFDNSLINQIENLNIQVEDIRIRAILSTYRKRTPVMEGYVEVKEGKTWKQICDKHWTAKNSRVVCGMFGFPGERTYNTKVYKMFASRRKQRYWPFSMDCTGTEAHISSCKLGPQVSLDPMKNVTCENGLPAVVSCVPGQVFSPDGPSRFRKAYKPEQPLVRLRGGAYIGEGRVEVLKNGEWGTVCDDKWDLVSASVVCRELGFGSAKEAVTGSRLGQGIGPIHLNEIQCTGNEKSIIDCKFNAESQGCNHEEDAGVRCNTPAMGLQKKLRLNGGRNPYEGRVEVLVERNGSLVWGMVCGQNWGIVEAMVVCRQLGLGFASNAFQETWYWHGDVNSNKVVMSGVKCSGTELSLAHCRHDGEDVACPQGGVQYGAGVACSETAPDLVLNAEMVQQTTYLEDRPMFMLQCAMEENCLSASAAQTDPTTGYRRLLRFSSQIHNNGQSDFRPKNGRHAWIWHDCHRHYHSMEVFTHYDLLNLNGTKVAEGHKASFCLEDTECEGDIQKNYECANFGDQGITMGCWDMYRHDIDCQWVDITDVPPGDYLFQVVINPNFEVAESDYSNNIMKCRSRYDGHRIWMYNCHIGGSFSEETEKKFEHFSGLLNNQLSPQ
Description: LOX and LOXL protein family members can be acquired as recombinant active proteins from commercial sources, or extracted from animal tissues like bovine aorta, tendons, pig skin; or prepared from cell cultures. […] The assay was developed using either 384 or 96 well format. Briefly, in a standard black, clear bottom 384 well plate assay 25 μL of a dilution of any of the isoenzymes and orthologues in 1.2 M urea, 50 mM sodium borate buffer (pH 8.2) were added into each well in the presence of 1 μM mofegiline and 0.5 mM pargyline (to inhibit SSAO and MAO-B and MAO-A, respectively; not necessary if the enzyme is from a recombinant or purified form). Test compounds were dissolved in DMSO and tested in a Concentration Response Curve (CRC) with 11 data points, typically in the micromolar or nanomolar range after incubation with the enzyme for 30 min at 37° C. 25 μL of a reaction mixture containing twice the KM concentration of putrescine (Sigma Aldrich, e.g. 20 mM for LOX and LOXL1 or 10 mM for LOXL2 and 4 mM for LOXL3 and LOXL4), 120 μM Amplex Red (Sigma Aldrich) and 1.5 U/mL horseradish peroxidase (Sigma Aldrich) prepared in 1.2 M urea, 50 mM sodium borate buffer (pH 8.2) were then added to the corresponding wells. The above volumes were doubled in the case of 96 wells plate. The fluorescence (RFU) was read every 2.5 min for 30 min at […] 37° C., excitation 565 nm and emission 590 (Optima; BMG labtech). The slope of the kinetics for each well was calculated using MARS data analysis software (BMG labtech) and this value was used to deduce the IC50 value (Dotmatics). The ability of the inventive compounds to inhibit the amine oxidase activity of LOX and other family members is shown in Table 4.

recombinant human MAO-B = molecular target: T2, recombinant human MAO-B (Homo sapiens, UniProt P27338); experiment: MAO-B inhibition; details: benzylamine 100 μM
T2 construct: purchased Sigma Aldrich
T2 sequence (P27338 1-520): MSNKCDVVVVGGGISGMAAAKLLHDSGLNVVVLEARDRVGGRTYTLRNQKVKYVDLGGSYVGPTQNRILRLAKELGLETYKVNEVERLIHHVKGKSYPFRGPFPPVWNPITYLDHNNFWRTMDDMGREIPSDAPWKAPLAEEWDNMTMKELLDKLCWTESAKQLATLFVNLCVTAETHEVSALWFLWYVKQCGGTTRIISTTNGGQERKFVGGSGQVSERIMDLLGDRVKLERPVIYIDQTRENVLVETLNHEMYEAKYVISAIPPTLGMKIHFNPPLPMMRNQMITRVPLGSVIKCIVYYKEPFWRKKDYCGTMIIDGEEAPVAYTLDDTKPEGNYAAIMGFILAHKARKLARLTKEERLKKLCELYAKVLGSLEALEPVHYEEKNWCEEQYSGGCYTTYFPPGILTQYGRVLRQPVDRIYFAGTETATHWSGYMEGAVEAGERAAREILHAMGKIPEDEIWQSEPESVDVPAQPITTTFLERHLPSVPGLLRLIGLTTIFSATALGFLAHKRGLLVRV
Description: The specificity of the compounds of this invention was tested by determining their ability to inhibit MAO-B activity in vitro using recombinant human MAO-B (0.02 mg/mL; Sigma Aldrich). The assay was performed in a similar way as for human SSAO/VAP-1 (Example 8) except, the substrate benzylamine was used at 100 μM.

recombinant human MAO-A = molecular target: T3, recombinant human MAO-A (Homo sapiens, UniProt P21397); experiment: MAO-A inhibition; details: 2 hours incubation, tyramine 100 μM
T3 construct: purchased Sigma Aldrich
T3 sequence (P21397 1-527): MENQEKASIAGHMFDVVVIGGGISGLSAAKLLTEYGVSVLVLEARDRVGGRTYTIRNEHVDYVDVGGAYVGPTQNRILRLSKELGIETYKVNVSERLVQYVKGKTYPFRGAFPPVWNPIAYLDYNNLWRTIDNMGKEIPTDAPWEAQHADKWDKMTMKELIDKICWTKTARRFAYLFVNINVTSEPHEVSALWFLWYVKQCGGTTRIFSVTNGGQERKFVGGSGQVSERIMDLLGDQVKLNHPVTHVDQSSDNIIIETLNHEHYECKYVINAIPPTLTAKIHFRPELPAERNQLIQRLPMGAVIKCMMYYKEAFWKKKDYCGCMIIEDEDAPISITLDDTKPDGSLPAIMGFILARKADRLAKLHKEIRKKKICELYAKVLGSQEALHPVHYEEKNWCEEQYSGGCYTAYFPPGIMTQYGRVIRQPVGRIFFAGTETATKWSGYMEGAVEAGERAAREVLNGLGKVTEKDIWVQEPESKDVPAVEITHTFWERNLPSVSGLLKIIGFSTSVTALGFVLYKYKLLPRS
Description: The specificity of the compounds of this invention was tested by determining their ability to inhibit MAO-A activity in vitro, using recombinant human MAO-A (0.003 mg/mL; Sigma Aldrich). The assay was performed in a similar way as for human SSAO/VAP-1 (Example 8) except, the incubation with the test compounds was extended to 2 hours, and the substrate tyramine was used at 100 μM in place of benzylamine.

[1] = incubation with enzyme 30 min at 37° C, read-out: Human recombinant LOXL2 Activity IC50

| Structure (SMILES) | IC50 (Human recombinant LOXL2; [1]) [nM] | IC50 (recombinant human MAO-B) [µM] | IC50 (recombinant human MAO-A) [µM] | IC50 (Human recombinant LOXL2) [nM] |
| --- | --- | --- | --- | --- |
| NC/C=C(\F)C(F)(F)[S+]([O-])c1ccccc1 (stereo not shown) [Compound 9, (Z)-3,4,4-trifluoro-4-(phenylsulfinyl)but-2-en-1-amine] | 1400 |  |  |  |
| NC/C=C(\F)C(F)(F)S(=O)(=O)c1cccc2cccnc12 [Compound 2, (Z)-3,4,4-trifluoro-4-(quinolin-8-ylsulfonyl)but-2-en-1-amine] | 1800 |  |  |  |
| COc1cccc(S(=O)(=O)C(F)(F)/C(F)=C/CN)c1 [Compound 12, (Z)-3,4,4-trifluoro-4-((3-methoxyphenyl)sulfonyl)but-2-en-1-amine] | 600 |  |  |  |
| NC/C=C(\F)C(F)(F)S(=O)(=O)C1CCCC1 [Compound 19, (Z)-4-(cyclopentylsulfony1)-3,4,4-trifluorobut-2-en-1-amine] | 500 |  |  |  |
| NC/C=C(\F)C(F)(F)S(=O)(=O)Cc1ccccc1 [Compound 8, (Z)-4-(benzylsulfony1)-3,4,4-trifluorobut-2-en-1-amine] | 300 | > 30 | > 30 |  |
| NC/C=C(\F)C(F)(F)S(=O)(=O)c1ccccc1 [Compound 1, (Z)-3,4,4-trifluoro-4-(phenylsulfonyl)but-2-en-1-amine] |  |  |  | 400 |
| Cc1ccc(S(=O)(=O)C(F)(F)/C(F)=C/CN)cc1 [Compound 6, (Z)-3,4,4-trifluoro-4-tosylbut-2-en-1-amine] | 500 | > 30 | > 30 |  |
| N#CCCN [BAPN, β-aminopropionitrile, reference compound] | 400 | > 30 | > 30 |  |

Further lines, with some results ahead:

| IC50 (Human recombinant LOXL2; [1]) [nM] | IC50 (recombinant human MAO-B) [µM] | IC50 (recombinant human MAO-A) [µM] | Structure (SMILES) | IC50 (Human recombinant LOXL2) [nM] |
| --- | --- | --- | --- | --- |
| 1000 | ≥ 30 | 26.7 | CNc1ccccc1S(=O)(=O)C(F)(F)/C(F)=C/CN [Compound 4, (Z)-2-((4-amino-1,1,2-trifluorobut-2-en-yl)sulfony1)-N-methylaniline] |  |
| 400 |  |  | CS(=O)(=O)c1cccc(CS(=O)(=O)C(F)(F)/C(F)=C/CN)c1 [Compound 17, (Z)-3,4,4-trifluoro-4-((3-(methylsulfonyl)benzyl)sulfonyl)but-2-en-1-amine] |  |
| 100 | > 30 | 4.7 | CS(=O)(=O)c1ccc(COc2ccccc2S(=O)(=O)C(F)(F)/C(F)=C/CN)cc1 [Compound 10, (Z)-3,4,4-trifluoro-4-((2-((4-(methylsulfonyl)benzyl)oxy)phenyl)sulfonyl) but-2-en-1-amine] |  |
| 500 | > 30 | 20.2 | Cc1ccccc1S(=O)(=O)C(F)(F)/C(F)=C/CN [Compound 5, (Z)-3,4,4-trifluoro-4-(o-tolylsulfonyl)but-2-en-1-amine] |  |
| 300 |  |  | NC/C=C(\F)C(F)(F)S(=O)(=O)c1cccs1 [Compound 14, (Z)-3,4,4-trifluoro-4-(thiophen-2-ylsulfonyl)but-2-en-1-amine] |  |

Reference: patent publication US20220251036A1, “DIFLUOROHALOALLYLAMINE SULFONE DERIVATIVE INHIBITORS OF LYSYL OXIDASES, METHODS OF PREPARATION, AND USES THEREOF” (PHARMAXIS LTD., priority 2019, published 2022)
